Measurements taken from patent publication US20100087458A1, “METHOD OF TREATING MELANOMA” (Myriad Pharmaceuticals, Inc., priority 2007, published 2010).
“Also recorded” adds a separate entry of the source. Structures can show the parent of a compound that is named as a salt.

Tested on: Subjects with refractory solid tumors
Assay: Phase I clinical trial, open-label, dose-escalating, multiple-dose, weekly intravenous administration (safety, tolerability)
Assay type: in vivo
Settings: human subjects
Procedure: An open-label, dose-escalating, multiple-dose study to define the safety, tolerability and phamacokinetics of weekly intravenous administration of (4-Methoxy-phenyl)-methyl-(2-methyl-quinazolin-4-yl)-amine hydrochloride was performed. A dosing schedule (each 4 week cycle) was performed for (4-Methoxy-phenyl)-methyl-(2-methyl-quinazolin-4-yl)-amine hydrochloride weekly for 3 weeks with no infusion on the fourth week of each cycle. Subjects with refractory solid tumors were enrolled in cohorts of 3. During Cycle 1, subjects were hospitalized during each infusion of (4-Methoxy-phenyl)-methyl-(2-methyl-quinazolin-4-yl)-amine hydrochloride and remained for observation and safety evaluation for approximately 24 hours following the end of the infusion. All subject had continuous telemetry for 2 hours prior to infusion, for 1-2 hour infusion and for 3 hours after the end of the infusion. Any clinically significant electrocardiographic (ECG) wave form abnormality was recorded and prolongation of the monitoring period extended at the discretion of the principal investigator.
Electrocardiograms were obtained prior to starting the infusion and within 30 minutes of the end of infusion for each infusion of the first cycle. Electrocardiograms on Day 1 were obtained in triplicate 5 minutes apart.
Neurocognitive assessments were made by administration of the Mini-Mental State Examination (MMSE), the Hopkins Verbal Learning and timed Grooved Pegboard tests before administration of the intravenous infusion and approximately 24 hours of the infusion at each weekly administration of the first cycle.
On days 1, 8, and 15 of each cycle, vital signs were obtained prior to the first dose, at 15, 30, and 60 minutes after the initiation of the infusion, and at 0.5, 1, 1.5, 2, and 4 hours after the end of the intravenous infusion. Vital signs at all time points beyond the start of the intravenous infusion included heart rate, blood pressure and respirations. Temperature was measured at the end of the infusion and 4 hours later.
Individual subjects were allowed to continue on repeated weekly ×3 administrations every 28 days with no dose increase provided there was no unacceptable toxicity or disease progression.
Tumor response was evaluated by response evaluation criteria in solid tumors (RECIST) criteria. To prevent sever hypersensitivity reactions due to Cremophor® EL, subjects were premedicated with oral dexamethasone (20 mg) administered approximately 12 and 6 hours before the intravenous infusion with (4-Methoxy-phenyl)-methyl-(2-methyl-quinazolin-4-yl)-amine hydrochloride, diphenhydramine (50 mg) or its equivalent administered intravenously 30-60 minutes before (4-Methoxy-phenyl)-methyl-(2-methyl-quinazolin-4-yl)-amine hydrochloride, and cimetidine (300 mg) or ranitidine (50 mg) administered intravenously 30-60 minutes before (4-Methoxy-phenyl)-methyl-(2-methyl-quinazolin-4-yl)-amine hydrochloride.

[1] = weekly i.v. infusion for 3 of 4 weeks, 0.3-3.3 mg/m^2
[2] = weekly i.v. infusion, 0.3-3.3 mg/m^2

COc1ccc(N(C)c2nc(C)nc3ccccc23)cc1 [(4-Methoxy-phenyl)-methyl-(2-methyl-quinazolin-4-yl)-amine hydrochloride]
effects on cardiac conduction (PR, QRS or QTc) (ECG before and within 30 minutes of end of infusion, 0.3-3.3 mg/m^2): no significant effects on cardiac conduction | overall safety and tolerability (weekly i.v. administration, various dosages, hydrochloride): safe and well tolerated in human subjects at various dosages; also recorded: safe and tolerable | dose limiting toxicity [1]: vascular in nature, manifested by an acute coronary syndrome | intratumor bleeding [1]: incidences of intratumor bleeding | peripheral cytotoxicity [1]: no evidence of cytotoxity peripherally at the administered doses | bradycardia [2]: occasional episodes of bradycardia | systolic blood pressure [2]: dose-related increase in systolic blood pressure
